Data on 38 molecules can be found in PubChem BioAssay (NCI).

SMILES strings stand for the structures. “And” between values parts separate entries of the source, which are not always exact repeats. Equal values may be shown once.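 Following 48 hours of exposure in 96-well plates, responses at five concentrations were used to interpolate endpoints linearly. GI50 marks 50% less growth. Definition used: TGI = concentration required for complete inhibition of growth.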 The source made the active and inactive calls. No stated cut-off is given here; in the data, active means GI50 below about 0.43 µM; inactive means the rest.

The subject of the assay is MDA-MB-468 breast. In words: NCI tumour cell line growth inhibition, 48 h.
For `COc1ccc2[nH]cc(-c3nc(N)nnc3-c3cn(C)c4ccc(Br)cc34)c2c1`, the GI50 is 698 nM and the TGI turned out to be 16000 nM. With `Cc1ccc(N(CC(=O)Nc2ccc(S(=O)(=O)N3CCC(N4CCCC4)CC3)cc2)S(=O)(=O)c2ccc(Cl)cc2)cc1`, the GI50 is 1650 nM and the TGI was determined as 3480 nM.

Take `N#Cc1c(NC(=O)c2ccccc2C(F)(F)F)sc2c1CCC(=O)C2`: the GI50 is 1690 nM and the TGI came out at 4680 nM.

Regarding `O=C(/C=C/c1ccccc1)n1c(-c2ccc(Cl)cc2)nc2ccccc21`, the GI50 was 1520 nM and the TGI stood at 4320 nM.

Consider `Cc1ccc(C)c(C2NC(=O)c3ccccc3N2)c1` (stereo not given), for which the GI50 is 4380 nM and the TGI was greater than 100000 nM. `Cn1c2ccc(Br)cc2c2c3c(c4c5ccccc5[nH]c4c21)C(=O)N(O)C3=O`: the GI50 is 214 nM and the TGI stood at 638 nM. Regarding `CCCC(CCC)C(=O)OCC1(CO)C/C(=C\c2ccc(F)cc2)C(=O)O1` (stereo not given), the GI50 was 11300 nM and the TGI was 24200 nM. As for `COC(=O)c1cc(O)c2c(c1C(=O)OC)C[C@H]1[C@@H]3CC=C4C[C@@H](O)CC[C@]4(C)[C@H]3CC[C@]21C`, the GI50 was 2870 nM and the TGI is 18100 nM.

Take `O=C1/C(=C\c2ccccn2)c2ccccc2N1c1c(Cl)cccc1Cl`: the GI50 is 1260 nM and the TGI came to 3100 nM.

`CCN(CC)CCCNC(=O)c1c2c(n3ccccc13)C(=O)c1ncccc1C2=O`: the GI50 is 283 nM and the TGI came out at 1080 nM. Take `O=C(Nc1ccc(-n2ccc3c(NC(=O)c4ccccc4)ncnc32)cc1)Nc1cccc(Cl)c1Cl`: the GI50 was 1180 nM and the TGI is 3420 nM.

On to `CC(C)(C)[Si](C)(C)OC1[C@@H](O[Si](C)(C)C(C)(C)C)[C@@H](CNC(=O)NC(=O)CCl)O[C@H]1n1cnc2c(NC(=O)Nc3ccccc3)ncnc21` (stereo not given in full), for which the GI50 is 839 nM and the TGI came to 1910 nM. On to `Cc1sc2c(c1C)C(c1ccc(Cl)cc1)=N[C@@H](CC(=O)OC(C)(C)C)c1nnc(C)n1-2`, for which the GI50 was 70.8 nM and 112 nM; the TGI is 1520 nM and 10800 nM. As to `Nc1nc(N)c2cc(NCc3ccc(Cl)c(Cl)c3)ccc2n1`, the GI50 is 1060 nM and the TGI worked out at 2230 nM. The matching figures for `COc1ccc(C(=O)c2cc3c(N)c(C(=O)Nc4ccc(C)cc4)sc3nc2C)cc1`: 1870 nM and 7080 nM. In the same order, the values of `COc1cccc(C2c3cc4c(cc3OC(N3CCCC3)C2C)OCO4)c1O` (stereo not given) are 3330 nM and 15800 nM. With `COc1cc(-c2nc(-c3nc4ccccc4[nH]3)cc3c2[nH]c2ccccc23)cc(OC)c1OC`, the GI50 is 3320 nM and the TGI is greater than 100000 nM.

Turning to `CN1C(=O)N[C@H]2[C@@H]3NC(=O)c4ccc(Br)n4[C@@H]3C[C@]21O`, the GI50 is 25.3 nM and the TGI turned out to be 173 nM.

With `C=C1CCC2C(C)(COC(=O)CC)C(OC(=O)CC)CCC2(C)C1C/C=C1/C(=O)OCC1OC(=O)CC` (stereo not given), the GI50 was 1740 nM and the TGI is 3400 nM. `Cc1cc(CC(C)CC(C)(C)C)n(O)c(=O)c1` (stereo not given) (tested in a mixture with another compound): the GI50 is 273 nM and the TGI amounted to 1060 nM. In the same order, the values of `CCC(CNc1cc(OC)cc2cccnc12)NC1CCCCC1` (stereo not given) are 7660 nM and 35500 nM. Take `COc1ccc2c(c1)CC[C@H](O)/C2=C/c1cc(OC)c(OC)c(OC)c1`: the GI50 was 200 nM and the TGI came to 15800 nM.

In the case of `O=C(OCc1ncc(-c2ccc(C(F)(F)F)cc2)c(NC2CCCCCC2)n1)c1c(F)c(F)c(F)c(F)c1F`, the GI50 is 2000 nM and the TGI stood at 5010 nM. On to `Cc1cc(N2CCSCC2)nc(NC2CCCC(Nc3ccnc4cc(Cl)ccc34)C2)n1` (stereo not given), for which the GI50 is 1580 nM and the TGI was 3350 nM. The matching figures for `Cc1nc(N2CCC3(CC2)CO[C@@H](C)[C@H]3N)c(CO)nc1Sc1ccnc(N)c1Cl`: 228 nM and 4860 nM. Consider `NC(=O)c1cccc(Nc2nccc(Nc3cccc4[nH]ncc34)n2)c1`, for which the GI50 was 2120 nM and the TGI was found to be 9350 nM. Take `CC(C)(C)CC(C)(C)NCc1cc(C(C)(C)C)cc(CNC(C)(C)CC(C)(C)C)c1O`: the GI50 was 1260 nM and the TGI turned out to be 2850 nM. Regarding `CCN(CC)CCCC(C)N=C(C1=C(C(=NC(C)CCCN(CC)CC)c2cccc(OC)c2)C(=O)NC1=O)c1cccc(OC)c1` (stereo not given), the GI50 is 869 nM and the TGI is 2070 nM. Turning to `CO[C@H](C(=O)[C@@H](O)[C@@H](C)O)[C@@H]1Cc2cc3cc(OC4CC(OC5CC(O)C(O)C(C)O5)C(O)C(C)O4)c(C)c(O)c3c(O)c2C(=O)[C@H]1OC1CC(OC2CC(OC3CC(C)(O)C(O)C(C)O3)C(O)C(C)O2)C(O)C(C)O1` (stereo not given in full), the result was inactive. In the case of `O=C(N/N=C/c1ccc([N+](=O)[O-])s1)c1[nH]c2ccc(Br)cc2c1-c1ccccc1`, the GI50 was 731 nM and the TGI was found to be 22200 nM.

As to `CCOC(=O)CC1C(COC(=O)NC)OC(n2cnc3c(NC(=O)Nc4ccccc4)ncnc32)C1O[Si](C)(C)C(C)(C)C` (stereo not given), the GI50 is 19700 nM and the TGI amounted to 94100 nM.

Turning to `COc1ccccc1CNCCCN1C(=O)c2ccc3c4c(ccc(c24)C1=O)C(=O)N(CCCCNCCCN)C3=O`, the GI50 is 267 nM and the TGI was 835 nM. The matching figures for `COc1cc(CNc2ccccc2C(=O)N2CCN(C(=O)c3cc(-c4cc(OC)c(OC)c(OC)c4)n4nc(-c5ccccc5)cc4n3)CC2)cc(OC)c1OC`: 2100 nM and 8450 nM. The matching figures for `COc1ccc(/C=N\Nc2ccc([N+](=O)[O-])cn2)cc1OC`: greater than 100000 nM and greater than 100000 nM. On to `CNC(=O)Cc1nc(-c2cccc(NS(=O)(=O)c3c(F)cccc3F)c2F)c(-c2ccnc(Nc3ccccc3)n2)s1`, for which the GI50 was greater than 23400 nM and the TGI was greater than 50000 nM.

Take `OCC(O)c1nc2ccc3[nH]ncc3c2c2c1CCCC2` (stereo not given): the GI50 is 1040 nM and the TGI worked out at 2110 nM. For `COc1cccc(NC(=O)c2sc3nc4c(cc3c2N)C(=O)CCC4)c1`, the GI50 was 46.7 nM and the TGI is greater than 100000 nM. On to `COc1cc(Nc2nc3ccccc3cc2C(=O)Nc2ccc(F)c(F)c2)cc(OC)c1OC`, for which the GI50 was 2010 nM and the TGI worked out at 6580 nM.
